Source: patent publication US4528369A, “20-Dihydro-20-deoxy-23-de(mycinosyloxy)tylosin” (Eli Lilly and Company, priority 1983, dated 1985)
Values after ≈ are worked out from the molar mass of the structure shown. “Also recorded” adds a separate entry of the source. Where two headings read alike, the source gives them in different places.

Key:
[1] = tested on: pathogenic bacteria, especially gram-positive bacteria and Mycoplasma species; experiment: Inhibition of growth of pathogenic bacteria (in words); assay type: cell-based
Protocol: (§1) Tables II and III summarize the minimal inhibitory concentrations (MIC) at which 20-deoxo-DMOT and mycaminosyltylactone (as free bases) inhibit certain organisms. The MIC's in Table II were determined by standard agar-dilutionassays. The MIC's in Table III were obtained using a conventional broth-dilution microtiter test.

[2] = tested on: Haemophilus influenzae 76; experiment: MIC, standard agar-dilution assay (Table II); assay type: cell-based
Protocol: as §1

[3] = tested on: Staphylococcus aureus V41; experiment: MIC, standard agar-dilution assay (Table II); assay type: cell-based; settings: free base, S. aureus V41
Protocol: as §1

[4] = tested on: Streptococcus pyogenes C203; experiment: MIC, standard agar-dilution assay (Table II); assay type: cell-based
Protocol: as §1

[5] = tested on: Staphylococcus aureus NRRL B313; experiment: MIC, standard agar-dilution assay (Table II); assay type: cell-based
Protocol: as §1

[6] = tested on: Escherichia coli EC14; experiment: MIC, standard agar-dilution assay (Table II); assay type: cell-based; settings: free base, E. coli EC14
Protocol: as §1

[7] = tested on: Klebsiella pneumoniae KAE; experiment: MIC, standard agar-dilution assay (Table II); assay type: cell-based; settings: free base, K. pneumoniae KAE
Protocol: as §1

[8] = tested on: Streptococcus pneumoniae Park 1; experiment: MIC, standard agar-dilution assay (Table II); assay type: cell-based; settings: PARK1, free base, S. pneumoniae Park 1
Protocol: as §1

[9] = tested on: Staphylococcus aureus S13E; experiment: MIC, standard agar-dilution assay (Table II); assay type: cell-based
Protocol: as §1

[10] = tested on: Haemophilus influenzae C.L.; experiment: MIC, standard agar-dilution assay (Table II); assay type: cell-based
Protocol: as §1

[11] = tested on: Escherichia coli TEM; experiment: MIC, standard agar-dilution assay (Table II); assay type: cell-based
Protocol: as §1

[12] = tested on: Staphylococcus epidermidis EPI1; experiment: MIC, standard agar-dilution assay (Table II); assay type: cell-based; settings: free base, S. epidermidis EPI1
Protocol: as §1

[13] = tested on: Escherichia coli N10; experiment: MIC, standard agar-dilution assay (Table II); assay type: cell-based; settings: free base, E. coli N10
Protocol: as §1

[14] = tested on: Staphylococcus epidermidis EPI2; experiment: MIC, standard agar-dilution assay (Table II); assay type: cell-based; settings: free base, S. epidermidis EPI2
Protocol: as §1

[15] = tested on: Shigella sonnei N9; experiment: MIC, standard agar-dilution assay (Table II); assay type: cell-based; settings: free base
Protocol: as §1

[16] = tested on: Klebsiella pneumoniae X26; experiment: MIC, standard agar-dilution assay (Table II); assay type: cell-based
Protocol: as §1

[17] = tested on: Streptococcus sp. group D 9960; experiment: MIC, standard agar-dilution assay (Table II); assay type: cell-based
Protocol: as §1

[18] = tested on: Streptococcus faecium ATCC 9790; experiment: MIC, standard agar-dilution assay (Table II); assay type: cell-based; settings: Enterococcus faecium, ATCC9790
Protocol: as §1

[19] = tested on: Staphylococcus aureus X400; experiment: MIC, standard agar-dilution assay (Table II); assay type: cell-based
Protocol: as §1

[20] = tested on: Pasteurella hemolytica 22C; experiment: MIC, conventional broth-dilution microtiter test (Table III); assay type: cell-based; settings: free base, P. hemolytica 22C
Protocol: as §1

[21] = tested on: Pasteurella multocida 17E; experiment: as above; assay type: cell-based; settings: free base, P. multocida 17E, bovine isolate
Protocol: as §1

[22] = tested on: Mycoplasma synoviae; experiment: as above; assay type: cell-based; settings: Mycoplasmopsis synoviae, free base, M. synoviae
Protocol: as §1

[23] = tested on: Mycoplasma gallisepticum; experiment: as above; assay type: cell-based; settings: Mycoplasmoides gallisepticum, free base, M. gallisepticum
Protocol: as §1

[24] = tested on: Mycoplasma hyorhinis; experiment: as above; assay type: cell-based; settings: free base, M. hyorhinis
Protocol: as §1

[25] = tested on: Pasteurella multocida 60A; experiment: as above; assay type: cell-based; settings: free base, P. multocida 60A, avian isolate
Protocol: as §1

[26] = Solubility; assay type: physicochemical; settings: free base

Row | SMILES | antibacterial activity (in words) [1] | MIC [3] [µg/mL] | MIC [6] [µg/mL] | MIC [7] [µg/mL] | MIC [8] [µg/mL] | MIC [9] [µg/mL] | MIC [11] [µg/mL] | MIC [12] [µg/mL] | MIC [13] [µg/mL] | MIC [14] [µg/mL] | MIC [15] [µg/mL] | MIC [20] [µg/mL] | MIC [21] [µg/mL] | MIC [22] [µg/mL] | MIC [23] [µg/mL] | MIC [24] [µg/mL] | MIC [25] [µg/mL] | further results
1 | CCC1CC(C)C(=O)/C=C/C(C)=C/C(C)C(CC)OC(=O)CC(O)C(C)C1OC1OC(C)C(OC2CC(C)(O)C(O)C(C)O2)C(N(C)C)C1O (stereo not shown) [20-Deoxo-DMOT, 20-dihydro-20-deoxy-23-de(mycinosyloxy)tylosin] | some antibacterial activity; also recorded: inhibit the growth of pathogenic bacteria, especially gram-positive bacteria and Mycoplasma species | 64 (≈ 89.9 µM) | > 128 | > 128 | 64 (≈ 89.9 µM) | 64 (≈ 89.9 µM) | > 128 | 64 (≈ 89.9 µM) | > 128 | 64 (≈ 89.9 µM) | > 128 | > 50 | > 50 | 50 (≈ 70.2 µM) | > 50 | 50 (≈ 70.2 µM) | > 50 | MIC [2]; 76: > 128 µg/mL; MIC ([4]; C203): 128 µg/mL (≈ 180 µM); MIC ([5]; NRRLB313): 128 µg/mL (≈ 180 µM); MIC [10]: > 128 µg/mL; MIC ([16]; X26): > 128 µg/mL; MIC ([17]; Streptococcus): > 128 µg/mL; MIC [18]: > 128 µg/mL; MIC ([19]; X400): 128 µg/mL (≈ 180 µM); solubility in water [26]: slightly soluble in water; solubility in polar organic solvents ([26]; acetone, methanol, ethanol, chloroform, dimethylformamide and dimethyl sulfoxide): soluble in most polar organic solvents such as acetone, methanol, ethanol, chloroform, dimethylformamide and dimethyl sulfoxide
2 | CCC1CC(C)C(=O)/C=C/C(C)=C/C(C)C(CC)OC(=O)CC(O)C(C)C1OC1OC(C)C(O)C(N(C)C)C1O (stereo not shown) [Mycaminosyltylactone, 5-O-mycaminosyltylactone] | inhibit the growth of pathogenic bacteria, especially gram-positive bacteria and Mycoplasma species | 16 (≈ 28.2 µM) | > 128 | > 128 | 4 (≈ 7.05 µM) | 8 (≈ 14.1 µM) | > 128 | 8 (≈ 14.1 µM) | > 128 | 16 (≈ 28.2 µM) | > 128 | 25 (≈ 44 µM) | 12.5 (≈ 22 µM) | 12.5 (≈ 22 µM) | 1.56 (≈ 2.75 µM) | 50 (≈ 88.1 µM) | 12.5 (≈ 22 µM) | MIC ([2]; free base, agar-dilution, H. influenzae 76, read-out: MIC): 16 µg/mL (≈ 28.2 µM); MIC ([4]; free base, agar-dilution, S. pyogenes C203, read-out: MIC): 32 µg/mL (≈ 56.4 µM); MIC ([5]; NRRLB313, free base, agar-dilution, S. aureus NRRL B313, read-out: MIC): 16 µg/mL (≈ 28.2 µM); MIC ([10]; free base, agar-dilution, H. influenzae C.L., read-out: MIC): 16 µg/mL (≈ 28.2 µM); MIC ([16]; free base, agar-dilution, K. pneumoniae X26, read-out: MIC): 8 µg/mL (≈ 14.1 µM); MIC ([17]; free base, agar-dilution, Streptococcus sp. group D 9960, read-out: MIC): 32 µg/mL (≈ 56.4 µM); MIC ([18]; free base, agar-dilution, S. faecium ATCC 9790, read-out: MIC): 32 µg/mL (≈ 56.4 µM); MIC ([19]; free base, agar-dilution, S. aureus X400, read-out: MIC): 32 µg/mL (≈ 56.4 µM)
